For data set [1], the target named is T1, DfrA5 (Escherichia coli, UniProt P11731). In words: biochemical. Set-up: species or system E. coli. As to the method: (§1) The assay was performed at room temperature using the Shimadzu UV/visible spectrophotometer. A standard reaction buffer contained 20 mM TES, pH 7.0, 50 mM KCl, 10 mM β-mercapthoethanol, 0.5 mM EDTA, and 1 mg/ml BSA. […] All measurements were performed in triplicate, from at least two independent experiments.

The target of data set [2] is T2, EcDHFR D27E (Escherichia coli, UniProt P0ABQ4, D27E).
T2 construct: using E. coli DHFR template previously synthesized by GeneScript; made in house; host or cells: E. coli BL21(DE3)
T2 sequence (P0ABQ4 1-159 D27E): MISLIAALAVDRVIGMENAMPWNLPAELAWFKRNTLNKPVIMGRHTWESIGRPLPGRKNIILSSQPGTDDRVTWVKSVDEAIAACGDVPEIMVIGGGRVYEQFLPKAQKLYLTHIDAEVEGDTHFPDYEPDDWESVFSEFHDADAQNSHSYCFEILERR
The data set can be described thus: Steady-state kinetic measurements. It is filed as biochemical. As to conditions: varied substrate 1 to 200 µM, 25 °C. An excerpt: (§2) using a nonlinear regression method in GraphPad Prism 9.2.0 software. To determine the turnover number (kcat) using the same model, the enzyme concentration (based on the protein concentration determined by Bradford assay) was constrained to a constant value and analyzed by the following equation (Eq. 3):3 Y=Et×kcat×X/(Km+X)

Data set [3] concerns the target T3, EcDHFR L28Q (Escherichia coli, UniProt P0ABQ4, L28Q).
T3 construct: using E. coli DHFR template previously synthesized by GeneScript; made in house; host or cells: E. coli BL21(DE3)
T3 sequence (P0ABQ4 1-159 L28Q): T2 sequence (P0ABQ4 1-159 D27E) with E27D, L28Q
The data set can be described thus: Steady-state kinetic measurements. Format: biochemical. The conditions noted are these: varied substrate 1 to 200 µM, 25 °C.
Description: as §2

For data set [4], the target named is T4, EcDHFR D27E/L28Q (Escherichia coli, UniProt P0ABQ4, D27E/L28Q).
T4 construct: using E. coli DHFR template previously synthesized by GeneScript; made in house; host or cells: E. coli BL21(DE3)
T4 sequence (P0ABQ4 1-159 D27E/L28Q): T2 sequence (P0ABQ4 1-159 D27E) with L28Q
The data set can be described thus: Steady-state kinetic measurements. Format: biochemical. As to conditions: varied substrate 1 to 200 µM, 25 °C.
Description: as §2

Data set [5] relates to E. coli JW0451 acrB mutant strain. The data set can be described thus: microbe, parasite or virus in culture. Format: cell-based. As to conditions: for MIC: w/o SMX, 80% inhibition of growth, 18 to 20 hours, 37°C. Here is the method:
(§3) Preparation, handling of cultures and the antibiotic susceptibility testing was performed according to CLSI guidelines. […] The compounds at the highest concentrations alone and paired with Sulfamethoxazole (1:19 w/w ratio) were then added to the first well before being serially diluted (2-fold) throughout the plate, leaving the last well with broth only (negative growth control). Next, 50 μl of the inoculum was added to each well.

Data set [6] concerns E. coli BL21(DE3) strain overexpressing DfrA5. In words: Antibacterial activity (MIC). It is filed as cell-based. As to conditions: Escherichia coli.
The subject of data set [7] is E. coli BL21(DE3) strain overexpressing EcDHFR wt. The data set can be described thus: Antibacterial activity (MIC). It is filed as cell-based. As to conditions: Escherichia coli.
Data set [8] deals with E. coli BL21(DE3) strain overexpressing DfrA1. In words: Antibacterial activity (MIC). The conditions noted are these: Escherichia coli. Format: cell-based.
For data set [9], the system named is NC(=O)C1=CN([C@H]2O[C@H](COP(=O)(O)OP(=O)(O)OC[C@H]3O[C@@H](n4cnc5c(N)ncnc54)[C@H](OP(=O)(O)O)[C@@H]3O)[C@@H](O)[C@H]2O)C=CC1. In words: Steady-state kinetic measurements. As to conditions: other: varied substrate 1 to 200 µM, 25 °C. Format: biochemical, Escherichia coli.
The next data set addresses T5, E. coli DHFR (EcDHFR) (Escherichia coli, UniProt P0ABQ4).
T5 construct: E. coli DHFR gene (UniProtKB:P0ABQ4) and dfrA1 gene (UniProtKB:A4GRC7) were synthesized and cloned in pET-41a (+) vector; made in house; host or cells: E. coli BL21(DE3)
The data set can be described thus: biochemical. As to the method:
as §1

A further data set relates to E. coli BW25113. In words: microbe, parasite or virus in culture. It is filed as cell-based. The conditions noted are these: for MIC: Escherichia coli, 80% inhibition of growth. As to the method:
as §3

In a further data set the test system is DfrA1 and DfrA5. It is filed as biochemical, E. coli. The conditions noted are these: range over DfrA1 and DfrA5. As to the method:
as §1

Data set [10] deals with T1, DfrA5. Format: binding, E. coli. Set-up: E. coli dfrA5 gene (UniProtKB:A0A4Y6L037) was synthesized and cloned in pET-24a (+) vector with the same restriction sites; 6xHis tag (C); made in house; host or cells: E. coli BL21(DE3). As to the method: In all, 200 µg of purified enzyme was preincubated for 18 h without and with a 10× molar excess of the ligand(s) (NADPH, TMP or PLA) in 20 mM Hepes 7.5, 100 mM KCl, 5% glycerol, ±2.0% DMSO and 2 mM DTT buffer. […] Changes in intrinsic fluorescence intensity (measured ratio of absorbance at 350 nm over 330 nm) from tryptophan residues were used to calculate derivatives using the evaluation features provided by the Tycho instrument. The inflection temperature (Ti) as a marker of protein structural integrity was determined by the first derivative of the signal (ratio of 350 nm/330 nm).

A further data set deals with T6, DfrA1 (Escherichia coli, UniProt P00382).
T6 construct: dfrA1 gene (UniProtKB:A4GRC7) were synthesized and cloned in pET-41a (+) vector; made in house; host or cells: E. coli BL21(DE3)
T6 sequence (P00382 1-157): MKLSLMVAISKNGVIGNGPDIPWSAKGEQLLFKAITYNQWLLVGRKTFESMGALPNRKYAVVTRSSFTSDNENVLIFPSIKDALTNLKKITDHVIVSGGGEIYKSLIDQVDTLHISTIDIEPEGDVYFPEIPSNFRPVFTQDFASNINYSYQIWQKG
It is filed as binding, E. coli. Here is the method: (§4) In all, 200 µg of purified enzyme was preincubated for 18 h without and with a 10× molar excess of the ligand(s) (NADPH, TMP or PLA) in 20 mM Hepes 7.5, 100 mM KCl, 5% glycerol, ±2.0% DMSO and 2 mM DTT buffer. […] Changes in intrinsic fluorescence intensity (measured ratio of absorbance at 350 nm over 330 nm) from tryptophan residues were used to calculate derivatives using the evaluation features provided by the Tycho instrument.

For the next data set, the target named is T7, EcDHFR (Escherichia coli, UniProt P0ABQ4).
T7 construct: E. coli DHFR gene (UniProtKB:P0ABQ4) and dfrA1 gene (UniProtKB:A4GRC7) were synthesized and cloned in pET-41a (+) vector; made in house; host or cells: E. coli BL21(DE3)
Format: binding. Here is the method:
as §4

Data set [11] concerns the target T2, EcDHFR D27E. The data set can be described thus: Enzyme inhibition assay (NADPH oxidation, 340 nm). Format: biochemical. As to the method:
as §1

Data set [12] addresses T3, EcDHFR L28Q. The data set can be described thus: Enzyme inhibition assay (NADPH oxidation, 340 nm). Format: biochemical. Here is the method: as §1
In data set [13] the target is T4, EcDHFR D27E/L28Q. In words: Enzyme inhibition assay (NADPH oxidation, 340 nm). It is filed as biochemical. As to the method:
as §1

For data set [14], the system named is NC(=O)C1=CN([C@H]2O[C@H](COP(=O)(O)OP(=O)(O)OC[C@H]3O[C@@H](n4cnc5c(N)ncnc54)[C@H](OP(=O)(O)O)[C@@H]3O)[C@@H](O)[C@H]2O)C=CC1. The data set can be described thus: purified protein, by the assay type. Format: biochemical, E. coli. As to conditions: other: varied substrate 1 to 200 µM, 25 °C.
Description: as §2

Data set [15] relates to Nc1nc2c(c(=O)[nH]1)N=C(CNc1ccc(C(=O)N[C@@H](CCC(=O)O)C(=O)O)cc1)CN2. The data set can be described thus: purified protein, by the assay type. It is filed as biochemical, E. coli. The conditions noted are these: other: varied substrate 1 to 200 µM, 25 °C.
Description: as §2

Where [16] appears, read: binary complex, 10× molar excess of ligand.

Where a chain is given by its changes, count along the chain named. Values after ≈ are worked out from the molar mass of the structure shown. Like-named read-outs stand apart in the source and are kept apart here.

As a reminder, the Ki is the equilibrium dissociation constant of an inhibitor or competing ligand from its target. The low end stands for tighter binding, the high end for weaker binding. In general, Km refers to the concentration of substrate that gives half-maximal velocity. A word on the kcat/Km: it is the second-order rate constant that governs catalysis at low substrate concentration. A word on the kcat: it is the number of substrate molecules converted per active site and unit of time at saturation.

For `COc1cc(Cc2cnc(N)nc2N)c2c(c1OC)OC(C1CC1)C=C2` (centres unmarked) [Iclaprim, reference compound], on DfrA5 [1], the Ki turned out to be 99 ± 13.9 nM.

Take `Nc1nc2c(c(=O)[nH]1)N=C(CNc1ccc(C(=O)N[C@@H](CCC(=O)O)C(=O)O)cc1)CN2` [DHF, dihydrofolate]: the values for the Km on EcDHFR D27E [2], on EcDHFR L28Q [3] and at EcDHFR D27E/L28Q [4] were 15.4 ± 2.1 µM, 5.2 ± 1 µM and 56.6 ± 8 µM, respectively.

Turning to `COc1cc(Cc2cnc(N)nc2N)cc(OC)c1OC` [Trimethoprim, reference compound], the MIC in [5] (Escherichia coli) was 0.04 µg/mL (≈ 0.138 µM); in [6] (w/ SMX (1:19)), > 20 µg/mL; in [6] (w/o SMX) it was > 20 µg/mL; in [7] (w/ SMX (1:19)) it was 0.078 µg/mL (≈ 0.269 µM); in data set [7] (w/o SMX), 0.625 µg/mL (≈ 2.15 µM); in [8] (w/ SMX (1:19)) it was > 20 µg/mL. For the same compound, the MIC in data set [8] (w/o SMX) was > 20 µg/mL.

As to EcDHFR (Escherichia coli K-12), in data set [9], the Km came to 5.8 ± 0.8 µM and the kcat/Km stood at 600000 ± 70000 M⁻¹ s⁻¹.

For `CCc1nc(N)nc(N)c1C#CC(C)c1cc2c(c(-c3ccc(CN)cc3)c1)OCO2` (centres unmarked) [UCP1223], the Ki on E. coli DHFR (EcDHFR) was 1.58 ± 0.26 nM; at DfrA5 [1], 16.8 ± 0.29 nM; at EcDHFR D27E [11], 12.8 ± 0.56 nM; on EcDHFR L28Q [12] it was 7.37 ± 0.72 nM; on EcDHFR D27E/L28Q [13], 187 ± 5.5 nM. Also, the “Fold difference in MIC” value (in data set [5] (BW25113 w/o SMX vs JW0451 w/o SMX); with E. coli BW25113 (BW25113 w/o SMX vs w/ SMX)) was 32 throughout. Further, the MIC is 0.625 µg/mL (≈ 1.5 µM) in data set [5] (Escherichia coli); 1.25 µg/mL (≈ 3.01 µM) in [5]; 0.625 µg/mL (≈ 1.5 µM) against E. coli BW25113 (BW25113, w/ SMX (1:19)); 20 µg/mL (≈ 48.1 µM) against E. coli BW25113 (BW25113, w/o SMX, 18 to 20 hours, 37°C); 10 µg/mL (≈ 24.1 µM) in data set [6] (w/ SMX (1:19)); > 20 µg/mL in data set [6] (w/o SMX). Besides, the MIC in data set [7] (w/ SMX (1:19)) was 1.25 µg/mL (≈ 3.01 µM); in [7] (w/o SMX), 20 µg/mL (≈ 48.1 µM); in data set [8] (w/ SMX (1:19)) it was 20 µg/mL (≈ 48.1 µM); in data set [8] (w/o SMX) it was > 20 µg/mL. In the data set with DfrA1 and DfrA5, the “fold loss of activity against DfrA1 and DfrA5 compared to EcDHFR” value is 10–14 fold. Besides, the Ti amounted to 67.3 ± 1.0 °C on DfrA5 [10] (setting [16]); 88.5 ± 0.2 °C at DfrA5 [10] (ternary complex, +NADPH); 58.5 ± 0.1 °C on DfrA1 (setting [16]); 71.2 ± 3.1 °C on DfrA1 (ternary complex, +NADPH). For the same compound, the “Δ (Ti shift vs apo)” value at DfrA5 [10] (setting [16]) amounted to 1.0 °C; on DfrA1 (setting [16]), 8.7 °C. Further, the “Ti 1” value worked out at 68.5 ± 1.4 °C on EcDHFR (setting [16]) and 78.9 ± 2.4 °C at EcDHFR (ternary complex, +NADPH). In addition, the “Ti 2” value was found to be 80.8 ± 0.2 °C on EcDHFR (setting [16]) and 88.3 ± 0.5 °C on EcDHFR (ternary complex, +NADPH). In addition, the “Δ1 (Ti shift vs apo)” value is 18.9 °C at EcDHFR (setting [16]) and 29.3 °C on EcDHFR (ternary complex, +NADPH). For the same compound, the “Δ2 (Ti shift vs apo)” value at EcDHFR (setting [16]) worked out at 20.6 °C. Moreover, on EcDHFR D27E [11] (D27E substitution), the “fold increase in Ki over EcDHFR” value stood at 8 fold. Moreover, the “fold loss in affinities relative to EcDHFR” value at EcDHFR D27E/L28Q [13] (combinatorial mutant D27E/L28Q) was determined as 118 fold.

Regarding DfrA5 (Escherichia coli), in data set [14], the Km was 19.9 ± 6.1 µM, the kcat amounted to 34.3 ± 3.3 s⁻¹ and the kcat/Km came out at 1.7e+06 ± 500000 M⁻¹ s⁻¹. In addition, in data set [15], the Km came to 24.2 ± 6.6 µM, the kcat came out at 31.4 ± 3.2 s⁻¹ and the kcat/Km turned out to be 1.3e+06 ± 400000 M⁻¹ s⁻¹.

Turning to `CN(Cc1cnc2nc(N)nc(N)c2n1)c1ccc(C(=O)N[C@@H](CCC(=O)O)C(=O)O)cc1` [Methotrexate, reference compound], the Ki on DfrA5 [1] came out at 579 ± 73.8 nM.

The values above are taken from article PMC9106665 (Communications Biology, 2022).
